Laboratory results reported in patent US20230112484A1, “COMPOSITIONS FOR CROP PROTECTION” (Agrematch Ltd., priority 2020, published 2023).

How the values were obtained:
Format in all cases: in vivo
Amaranthus palmeri [1] = assay: Soil germination (Example 1); settings: for Amaranthus palmeri soil germination: score 0 = complete germination inhibition, 100 = no effect; for soil germination of Amaranthus palmeri, result in words: concentration not given
Experimental: (§1) Compounds were dissolved in DMSO and then in distilled water to get 0.01-2 mg/ml solution with 1% or 2% DMSO. 1% or 2% DMSO solution in water was used as a negative control. As a positive control, 0.1 or 0.2 mg/ml oxyfluorfen (Galigan) solution was used.
(§2) Flowerpots were filled with 30 g of soil, and 4-5 seeds were sowed in each flowerpot. Each treatment contained 3 flowerpots. Each flowerpot was sprayed with 1.5 ml of the dissolved compound. Soil was let dry for about 1 hour at room conditions, and then each flowerpot was sub-irrigated with 40 ml water and incubated under conditions provided below.
(§3) Amaranthus palmeri was incubated at 25° C. for 8 hr in dark, followed by 16 hr at 30° C. in light. Lolium rigidum was incubated at 21° C. for 8 hr in dark, followed by 16 hr at 21° C. in light. Germination was assessed and scored after 4-7 days. Scoring scale: 0—complete germination inhibition, 100—no effect.

Lolium rigidum [2] = assay: Soil germination (Example 1); settings: for Lolium rigidum soil germination: score 0 = complete germination inhibition, 100 = no effect; for soil germination of Lolium rigidum, result in words: concentration not given
Experimental: as §1, §2, §3

Abutilon theophrasti = assay: Soil germination (Example 3); settings: 0.1 mg/ml; score 0 = complete germination inhibition, 100 = no effect; after 7 days
Experimental: (§4) Compounds were dissolved in DMSO and then in distilled water to get 0.1 or 0.5 mg/ml solution with 2% DMSO. 2% DMSO solution in water was used as a negative control. No positive control was used in this assay. Flowerpots were filled with 30 g of soil, each treatment contained three flowerpots. Each flowerpot was sprayed with 1.5 ml of the dissolved compound. Soil was let dry for about 1 hour at room conditions, and then each flowerpot was sub-irrigated with 40 ml water and incubated at controlled growth chambers, under conditions provided on table 6. Gemination was assessed and scored after 7 days. Scoring scale: 0—complete germination inhibition, 100—no effect. [table]

Amaranthus palmeri [3] = assay: Soil germination (Example 3); settings: 0.1 mg/ml; score 0 = complete germination inhibition, 100 = no effect; after 7 days
Experimental: as §4

Echinochloa colonum = assay: Soil germination (Example 3); settings: 0.1 mg/ml; score 0 = complete germination inhibition, 100 = no effect; after 7 days
Experimental: as §4

Setaria adhaerens = assay: Soil germination (Example 3); settings: 0.1 mg/ml; score 0 = complete germination inhibition, 100 = no effect; after 7 days
Experimental: as §4

Triticum vulgare [4] = assay: Soil germination (Example 3); settings: 0.1 mg/ml; score 0 = complete germination inhibition, 100 = no effect; after 7 days
Experimental: as §4

Zea mays [5] = assay: Soil germination (Example 3); settings: 0.1 mg/ml; score 0 = complete germination inhibition, 100 = no effect; after 7 days
Experimental: as §4

Amaranthus palmeri [6] = assay: Residual activity greenhouse assay; settings: seeds sowed three weeks after pre-emergence application
Source text: Residual activity of Compound 1 and Compound 2 was examined in greenhouse assay. Three weeks after pre-emergence application, new Amaranthus palmeri seeds were sowed on the same pots and germination was followed.

Triticum vulgare [7] = assay: Foliar experiment (Example 2); settings: 0.1 mg/ml; score 0 = complete phytotoxic effect, 100 = no effect
Experimental: (§5) Compounds were dissolved in DMSO and then in distilled water to get 0.1 or 0.5 mg/ml solution with 2% DMSO. Break-Thru surfactant was added to a final concentration of 0.05%. Negative control—an aqueous solution of 2% DMSO and 0.05% Break-Thru. Positive control—2 mg/ml Glyphosate (Roundup). 1.5 ml of each compound solution were sprayed on the foliage of different plants, which were 6-16 days old at the day of the experiment. Each treatment contained 3 pots. Plants were let dry for about 15 minutes at room conditions, and then incubated at controlled growth chambers. Phytotoxicity was assessed and scored 4-10 days after applications. Scoring scale: 0—complete phytotoxic effect, 100—no effect. [table]

Zea mays [8] = assay: Foliar experiment (Example 2); settings: 0.1 mg/ml; score 0 = complete phytotoxic effect, 100 = no effect
Experimental: as §5

Lolium rigidum [9] = assay: Soil germination (Example 3); settings: 0.1 mg/ml; score 0 = complete germination inhibition, 100 = no effect; after 7 days
Experimental: as §4

Amaranthus palmeri [10] = assay: Pre-emergence application (Example 5); settings: score 0 = complete germination inhibition, 100 = no effect
Experimental: For pre-emergence application, compounds were dissolved in DMSO and then in distilled water to get 0.1-2 mg/ml solution with 2% DMSO. 2% DMSO solution in water was used as a negative control. As a positive control, 0.2 mg/ml oxyfluorfen ([…]) solution was used. For pre-emergence application, flowerpots were filled with 30 g of soil, and 4-5 Amaranthus palmeri seeds were sowed in each flowerpot. Each treatment contained 3 flowerpots. Each flowerpot was sprayed with 1.5 ml of the dissolved compound. Soil was let dry for about 1 hour at room conditions, and then each flowerpot was sub-irrigated with 40 ml water and incubated under conditions provided below. Amaranthus palmeri was incubated at 25° C. for 8 hr in dark, followed by 16 hr at 30° C. in light. Germination was assessed and scored after 4-7 days. Scoring scale: 0-complete germination inhibition, 100-no effect.

Amaranthus palmeri [11] = assay: Post-emergence application (Example 5); settings: score 0 = complete phytotoxic effect, 100 = no effect
Experimental: as §5, with “For post-emergence application, compounds” for “Compounds”, “0.05-2” for “0.1 or 0.5”, “(Roundup). For post-emergence application,” for “(Roundup).”, “Amaranthus palmeri,” for “different plants,”, “10” for “6-16”, “effect.” for “effect. [table]”

Setaria viridis = assay: Herbicidal effect against Setaria viridis (Example 5); settings: for Herbicidal effect against Setaria viridis, result in words: in vivo
[12] = 2 mg/ml, 4-10 days after application

CC(Cl)/C=C/C(=O)N(CC(C)C)CC(C)C (centres unmarked) [Compound 1]
Amaranthus palmeri soil germination (Amaranthus palmeri [1]; 0.01 mg/ml): 80
Amaranthus palmeri soil germination (Amaranthus palmeri [1]; 0.025 mg/ml): 30
Amaranthus palmeri soil germination (Amaranthus palmeri [1]; 0.05 mg/ml): 0
Amaranthus palmeri soil germination (Amaranthus palmeri [1]; 0.1 mg/ml): 0
Amaranthus palmeri soil germination (Amaranthus palmeri [1]; 0.25 mg/ml): 0
soil germination of Amaranthus palmeri, result in words (Amaranthus palmeri [1]): active
Lolium rigidum soil germination (Lolium rigidum [2]; 0.5 mg/ml): 60
soil germination of Lolium rigidum, result in words (Lolium rigidum [2]): active
Herbicidal activity, soil germination, Abutilon theophrasti (Abutilon theophrasti): 100
Herbicidal activity, soil germination, Amaranthus palmeri (Amaranthus palmeri [3]): 0
Herbicidal activity, soil germination, Echinochloa colonum (Echinochloa colonum): 100
Herbicidal activity, soil germination, Setaria adhaerens (Setaria adhaerens): 60
Herbicidal activity, soil germination, Triticum vulgare (Triticum vulgare [4]): 100
Herbicidal activity, soil germination, Zea mays (Zea mays [5]): 100
Residual activity: germination of newly sowed Amaranthus palmeri seeds (Amaranthus palmeri [6]): germination was observed

CC(Cl)/C=C/C(=O)N(Cc1ccc(Cl)nc1)CC(C)C (centres unmarked) [Compound 2]
Amaranthus palmeri soil germination (Amaranthus palmeri [1]; 0.01 mg/ml): 60
Amaranthus palmeri soil germination (Amaranthus palmeri [1]; 0.025 mg/ml): 50
Amaranthus palmeri soil germination (Amaranthus palmeri [1]; 0.05 mg/ml): 0
Amaranthus palmeri soil germination (Amaranthus palmeri [1]; 0.1 mg/ml): 0
Herbicidal activity, foliar, Triticum vulgare (Triticum vulgare [7]): 90
Herbicidal activity, foliar, Zea mays (Zea mays [8]): 90
Herbicidal activity, soil germination, Abutilon theophrasti (Abutilon theophrasti): 100
Herbicidal activity, soil germination, Amaranthus palmeri (Amaranthus palmeri [3]): 0
Herbicidal activity, soil germination, Echinochloa colonum (Echinochloa colonum): 100
Herbicidal activity, soil germination, Lolium rigidum (Lolium rigidum [9]): 90
Herbicidal activity, soil germination, Setaria adhaerens (Setaria adhaerens): 80
Herbicidal activity, soil germination, Triticum vulgare (Triticum vulgare [4]): 100
Herbicidal activity, soil germination, Zea mays (Zea mays [5]): 100
Residual activity: germination of newly sowed Amaranthus palmeri seeds (Amaranthus palmeri [6]): no germination was observed

CC(F)/C=C/C(=O)N(Cc1ccc(Cl)nc1)CC(C)C (centres unmarked) [Compound 3]
Amaranthus palmeri soil germination (Amaranthus palmeri [1]; 0.1 mg/ml): 30

Cc1ccsc1CN(CC(C)C)C(=O)/C=C/C(C)Cl (centres unmarked) [Compound 6]
Amaranthus palmeri soil germination (Amaranthus palmeri [1]; 0.1 mg/ml): 100
Amaranthus palmeri soil germination (Amaranthus palmeri [1]; 0.25 mg/ml): 100
Amaranthus palmeri soil germination (Amaranthus palmeri [1]; 0.5 mg/ml): 100
Amaranthus palmeri soil germination (Amaranthus palmeri [1]; 1 mg/ml): 70
Amaranthus palmeri soil germination (Amaranthus palmeri [1]; 2 mg/ml, after 4-7 days): 0
soil germination of Amaranthus palmeri, result in words (Amaranthus palmeri [1]): active
Lolium rigidum soil germination (Lolium rigidum [2]; 2 mg/ml): 30
soil germination of Lolium rigidum, result in words (Lolium rigidum [2]): active

CC#CCN(CC(C)C)C(=O)/C=C/C(C)Cl (centres unmarked) [Compound 7]
Pre-emergence Amaranthus palmeri herbicidal activity (Amaranthus palmeri [10]; 0.1 mg/ml): 10
Pre-emergence Amaranthus palmeri herbicidal activity (Amaranthus palmeri [10]; 0.25 mg/ml): 5
Pre-emergence Amaranthus palmeri herbicidal activity (Amaranthus palmeri [10]; 2 mg/ml, after 4-7 days): 0
Post-emergence Amaranthus palmeri herbicidal activity (Amaranthus palmeri [11]; [12]): 40

CCC#CCN(CC(C)C)C(=O)/C=C/C(C)Cl (centres unmarked) [Compound 8]
Pre-emergence Amaranthus palmeri herbicidal activity (Amaranthus palmeri [10]; 0.1 mg/ml): 100
Pre-emergence Amaranthus palmeri herbicidal activity (Amaranthus palmeri [10]; 0.25 mg/ml): 40
Pre-emergence Amaranthus palmeri herbicidal activity (Amaranthus palmeri [10]; 2 mg/ml, after 4-7 days): 0
Post-emergence Amaranthus palmeri herbicidal activity (Amaranthus palmeri [11]; [12]): 30

CCOCC#CCN(CC(C)C)C(=O)/C=C/C(C)Cl (centres unmarked) [Compound 9]
Pre-emergence Amaranthus palmeri herbicidal activity (Amaranthus palmeri [10]; 0.1 mg/ml): 60
Pre-emergence Amaranthus palmeri herbicidal activity (Amaranthus palmeri [10]; 0.25 mg/ml): 50
Pre-emergence Amaranthus palmeri herbicidal activity (Amaranthus palmeri [10]; 2 mg/ml, after 4-7 days): 0
Post-emergence Amaranthus palmeri herbicidal activity (Amaranthus palmeri [11]; [12]): 80

C#CCOCC#CCN(CC(C)C)C(=O)/C=C/C(C)Cl (centres unmarked) [Compound 10]
Pre-emergence Amaranthus palmeri herbicidal activity (Amaranthus palmeri [10]; 0.1 mg/ml): 100
Pre-emergence Amaranthus palmeri herbicidal activity (Amaranthus palmeri [10]; 0.25 mg/ml): 5
Pre-emergence Amaranthus palmeri herbicidal activity (Amaranthus palmeri [10]; 2 mg/ml, after 4-7 days): 0
Post-emergence Amaranthus palmeri herbicidal activity (Amaranthus palmeri [11]; [12]): 70

CC(Cl)/C=C/C(=O)N(CC(C)C)CC(F)(F)F (centres unmarked) [Compound 11]
Pre-emergence Amaranthus palmeri herbicidal activity (Amaranthus palmeri [10]; 0.1 mg/ml): 15
Pre-emergence Amaranthus palmeri herbicidal activity (Amaranthus palmeri [10]; 0.25 mg/ml): 5
Pre-emergence Amaranthus palmeri herbicidal activity (Amaranthus palmeri [10]; 2 mg/ml, after 4-7 days): 0
Post-emergence Amaranthus palmeri herbicidal activity (Amaranthus palmeri [11]; [12]): 60

CC(Cl)/C=C/C(=O)N(CCC(C)C)Cc1ccc(Cl)nc1 (centres unmarked) [Compound 12]
Pre-emergence Amaranthus palmeri herbicidal activity (Amaranthus palmeri [10]; 0.1 mg/ml): 20
Pre-emergence Amaranthus palmeri herbicidal activity (Amaranthus palmeri [10]; 0.25 mg/ml): 5
Post-emergence Amaranthus palmeri herbicidal activity (Amaranthus palmeri [11]; 0.05 mg/ml): 0
Post-emergence Amaranthus palmeri herbicidal activity (Amaranthus palmeri [11]; 0.075 mg/ml): 0
Herbicidal effect against Setaria viridis, result in words (Setaria viridis): moderate herbicidal effect

CC(Cl)/C=C/C(=O)N(Cc1ccc(C#N)nc1)CC(C)C (centres unmarked) [Compound 13]
Pre-emergence Amaranthus palmeri herbicidal activity (Amaranthus palmeri [10]; 0.1 mg/ml): 30
Pre-emergence Amaranthus palmeri herbicidal activity (Amaranthus palmeri [10]; 0.25 mg/ml): 0
Post-emergence Amaranthus palmeri herbicidal activity (Amaranthus palmeri [11]; 0.05 mg/ml): 10
Post-emergence Amaranthus palmeri herbicidal activity (Amaranthus palmeri [11]; 0.075 mg/ml): 0
Herbicidal effect against Setaria viridis, result in words (Setaria viridis): moderate herbicidal effect

CC(Cl)/C=C/C(=O)N(CCC(C)C)Cc1ccc(Cl)s1 (centres unmarked) [Compound 14]
Pre-emergence Amaranthus palmeri herbicidal activity (Amaranthus palmeri [10]; 0.1 mg/ml): 20
Pre-emergence Amaranthus palmeri herbicidal activity (Amaranthus palmeri [10]; 0.25 mg/ml): 5
Post-emergence Amaranthus palmeri herbicidal activity (Amaranthus palmeri [11]; 0.25 mg/ml): 20
Post-emergence Amaranthus palmeri herbicidal activity (Amaranthus palmeri [11]; 0.5 mg/ml): 20
Herbicidal effect against Setaria viridis, result in words (Setaria viridis): moderate herbicidal effect

CC(Cl)/C=C/C(=O)N(CCC(C)C)Cc1cnc(Cl)s1 (centres unmarked) [Compound 15]
Pre-emergence Amaranthus palmeri herbicidal activity (Amaranthus palmeri [10]; 0.1 mg/ml): 20
Pre-emergence Amaranthus palmeri herbicidal activity (Amaranthus palmeri [10]; 0.25 mg/ml): 0
Post-emergence Amaranthus palmeri herbicidal activity (Amaranthus palmeri [11]; 0.25 mg/ml): 5
Post-emergence Amaranthus palmeri herbicidal activity (Amaranthus palmeri [11]; 0.5 mg/ml): 0
Herbicidal effect against Setaria viridis, result in words (Setaria viridis): moderate herbicidal effect

CC(Cl)/C=C/C(=O)N(CCC(C)C)CCC(C)C (centres unmarked) [Compound 16]
Pre-emergence Amaranthus palmeri herbicidal activity (Amaranthus palmeri [10]; 0.1 mg/ml): 10
Pre-emergence Amaranthus palmeri herbicidal activity (Amaranthus palmeri [10]; 0.25 mg/ml): 0
Post-emergence Amaranthus palmeri herbicidal activity (Amaranthus palmeri [11]; 0.25 mg/ml): 50
Post-emergence Amaranthus palmeri herbicidal activity (Amaranthus palmeri [11]; 0.5 mg/ml): 10
Inhibition of Setaria viridis (Setaria viridis; applying to the area under cultivation): more than 30%
Herbicidal effect against Setaria viridis, result in words (Setaria viridis): very good herbicidal effect

COc1ccc(CN(CC(C)C)C(=O)/C=C/[C@@H](C)Cl)cc1 [reference compound]
Amaranthus palmeri soil germination (Amaranthus palmeri [1]; 0.1 mg/ml): substantially less active
Lolium rigidum soil germination (Lolium rigidum [2]; 0.5 mg/ml): unable to reduce soil germination
